Test results published in ChEMBL document CHEMBL1201862, “PubChem BioAssay data set” (2004).
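Method: 48-hour compound exposure of cells in 96-well plates, five concentrations, linear interpolation of endpoints. The concentration for 50% growth inhibition is given as GI50.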 Active and inactive are the calls of the source. Rule as the data show it: active = GI50 up to about 1.1 µM and inactive = higher.

How the values were obtained:
Experiment in all cases: NCI tumour cell line growth inhibition, 48 h
786-0 = tested on: 786-0
A498 = tested on: A498
A549 = tested on: A549
ACHN = tested on: ACHN
BT-549 = tested on: BT-549
CAKI-1 = tested on: CAKI-1
CCRF-CEM = tested on: CCRF-CEM
COLO 205 = tested on: COLO 205
DU-145 = tested on: DU-145
EKVX = tested on: EKVX
HCC 2998 = tested on: HCC 2998
HCT-116 = tested on: HCT-116
HCT-15 = tested on: HCT-15
HL-60 = tested on: HL-60
HOP-62 = tested on: HOP-62
HOP-92 = tested on: HOP-92
HT-29 = tested on: HT-29
Hs-578T = tested on: Hs-578T
IGROV-1 = tested on: IGROV-1
K562 = tested on: K562
KM12 = tested on: KM12
LOX IMVI = tested on: LOX IMVI
M14 = tested on: M14
MCF7 = tested on: MCF7
MDA-MB-231 = tested on: MDA-MB-231
MDA-MB-435 = tested on: MDA-MB-435
MDA-N = tested on: MDA-N
MOLT-4 = tested on: MOLT-4
Malme-3M = tested on: Malme-3M
NCI-H226 = tested on: NCI-H226
NCI-H23 = tested on: NCI-H23
NCI-H460 = tested on: NCI-H460
NCI-H522 = tested on: NCI-H522
NCI/ADR-RES = tested on: NCI/ADR-RES
OVCAR-3 = tested on: OVCAR-3
OVCAR-4 = tested on: OVCAR-4
OVCAR-5 = tested on: OVCAR-5
OVCAR-8 = tested on: OVCAR-8
PC-3 = tested on: PC-3
RPMI-8226 = tested on: RPMI-8226
RXF 393 = tested on: RXF 393
SF-268 = tested on: SF-268
SF-295 = tested on: SF-295
SF-539 = tested on: SF-539
SK-MEL-28 = tested on: SK-MEL-28
SK-MEL-2 = tested on: SK-MEL-2
SK-MEL-5 = tested on: SK-MEL-5
SK-OV-3 = tested on: SK-OV-3
SN12C = tested on: SN12C
SNB-19 = tested on: SNB-19
SNB-75 = tested on: SNB-75
SR = tested on: SR
SW-620 = tested on: SW-620
T47D = tested on: T47D
TK-10 = tested on: TK-10
U-251 = tested on: U-251
UACC-257 = tested on: UACC-257
UACC-62 = tested on: UACC-62
UO-31 = tested on: UO-31

SMILES: O=C(/C=C(O)/C(=C/C(=O)c1ccccc1)NN=C(c1ccccc1)c1ccccc1)c1ccccc1
- GI50 (786-0): 31.1 µM (inactive)
- GI50 (A498): 32.4 µM (inactive)
- GI50 (A549): 36.1 µM (inactive)
- GI50 (ACHN): 38.3 µM (inactive)
- GI50 (BT-549): 31.2 µM (inactive)
- GI50 (CAKI-1): 39.7 µM (inactive)
- GI50 (CCRF-CEM): 3.3 µM (inactive)
- GI50 (COLO 205): 40.6 µM (inactive)
- GI50 (DU-145): 45.2 µM (inactive)
- GI50 (EKVX): > 100 µM (inactive)
- GI50 (HCC 2998): 20.6 µM (inactive)
- GI50 (HCT-116): 28.1 µM (inactive)
- GI50 (HCT-15): 23.5 µM
- GI50 (HL-60): 1.57 µM (inactive)
- GI50 (HOP-62): 21 µM (inactive)
- GI50 (HOP-92): 60.4 µM (inactive)
- GI50 (HT-29): 85.7 µM (inactive)
- GI50 (Hs-578T): 29.2 µM (inactive)
- GI50 (IGROV-1): 36.9 µM (inactive)
- GI50 (K562): 15.2 µM (inactive)
- GI50 (KM12): 42.3 µM (inactive)
- GI50 (LOX IMVI): 38.3 µM (inactive)
- GI50 (M14): 24.9 µM (inactive)
- GI50 (MCF7): 34.4 µM (inactive)
- GI50 (MDA-MB-231): 49.7 µM (inactive)
- GI50 (MDA-MB-435): 31 µM (inactive)
- GI50 (MDA-N): 31.8 µM (inactive)
- GI50 (MOLT-4): 14.1 µM (inactive)
- GI50 (Malme-3M): 25.2 µM (inactive)
- GI50 (NCI-H226): 24.9 µM (inactive)
- GI50 (NCI-H23): 24 µM (inactive)
- GI50 (NCI-H460): 24 µM (inactive)
- GI50 (NCI-H522): 15.7 µM (inactive)
- GI50 (NCI/ADR-RES): 18.9 µM (inactive)
- GI50 (OVCAR-3): 18.3 µM (inactive)
- GI50 (OVCAR-4): 38.4 µM (inactive)
- GI50 (OVCAR-5): > 100 µM (inactive)
- GI50 (OVCAR-8): 44.7 µM (inactive)
- GI50 (PC-3): 35.9 µM (inactive)
- GI50 (RPMI-8226): 24.4 µM (inactive)
- GI50 (RXF 393): 41 µM (inactive)
- GI50 (SF-268): 30.3 µM (inactive)
- GI50 (SF-295): 23.5 µM (inactive)
- GI50 (SF-539): 37.5 µM (inactive)
- GI50 (SK-MEL-28): 51.6 µM (inactive)
- GI50 (SK-MEL-2): 25.8 µM (inactive)
- GI50 (SK-MEL-5): 18.7 µM (inactive)
- GI50 (SK-OV-3): 25.8 µM (inactive)
- GI50 (SN12C): 30.2 µM (inactive)
- GI50 (SNB-19): 41.3 µM (inactive)
- GI50 (SNB-75): 49.7 µM (inactive)
- GI50 (SR): 9.08 µM (inactive)
- GI50 (SW-620): 33.2 µM (inactive)
- GI50 (T47D): 32.4 µM (inactive)
- GI50 (TK-10): 28.4 µM (inactive)
- GI50 (U-251): 26.7 µM (inactive)
- GI50 (UACC-257): 26.9 µM (inactive)
- GI50 (UACC-62): 17.1 µM (inactive)
- GI50 (UO-31): 47.6 µM (inactive)

SMILES: C=CCn1c(-c2ccc(Cl)cc2Cl)cs/c1=N\c1c(C)n(C)n(-c2ccccc2)c1=O
- GI50 (786-0): 13.1 µM (inactive)
- GI50 (A498): 12.4 µM (inactive)
- GI50 (A549): 9.44 µM (inactive)
- GI50 (ACHN): 10 µM (inactive)
- GI50 (BT-549): 12.9 µM (inactive)
- GI50 (CAKI-1): 14.4 µM (inactive)
- GI50 (CCRF-CEM): 6.92 µM (inactive)
- GI50 (COLO 205): 12.3 µM (inactive)
- GI50 (DU-145): 13.2 µM (inactive)
- GI50 (EKVX): 3.54 µM (inactive)
- GI50 (HCC 2998): 15.3 µM (inactive)
- GI50 (HCT-116): 7.24 µM (inactive)
- GI50 (HCT-15): 13.7 µM
- GI50 (HL-60): 6.11 µM (inactive)
- GI50 (HOP-62): 15.2 µM (inactive)
- GI50 (HOP-92): 17.9 µM (inactive)
- GI50 (HT-29): 10.1 µM (inactive)
- GI50 (Hs-578T): 16.1 µM (inactive)
- GI50 (IGROV-1): 17 µM (inactive)
- GI50 (K562): 2.51 µM (inactive)
- GI50 (KM12): 13.5 µM (inactive)
- GI50 (LOX IMVI): 9.53 µM (inactive)
- GI50 (M14): 11.3 µM (inactive)
- GI50 (MCF7): 9.14 µM (inactive)
- GI50 (MDA-MB-231): 13.8 µM (inactive)
- GI50 (MDA-MB-435): 10.9 µM (inactive)
- GI50 (MDA-N): 8.55 µM (inactive)
- GI50 (MOLT-4): 4.32 µM (inactive)
- GI50 (Malme-3M): 15.9 µM (inactive)
- GI50 (NCI-H226): 15.7 µM (inactive)
- GI50 (NCI-H23): 9.82 µM (inactive)
- GI50 (NCI-H460): 12.9 µM (inactive)
- GI50 (NCI-H522): 12.2 µM (inactive)
- GI50 (NCI/ADR-RES): 6.71 µM (inactive)
- GI50 (OVCAR-3): 10.7 µM (inactive)
- GI50 (OVCAR-4): 8.11 µM (inactive)
- GI50 (OVCAR-5): 16.4 µM (inactive)
- GI50 (OVCAR-8): 5.81 µM (inactive)
- GI50 (PC-3): 5.53 µM (inactive)
- GI50 (RPMI-8226): 7.19 µM (inactive)
- GI50 (RXF 393): 14.5 µM (inactive)
- GI50 (SF-268): 15.7 µM (inactive)
- GI50 (SF-295): 6.9 µM (inactive)
- GI50 (SF-539): 14.8 µM (inactive)
- GI50 (SK-MEL-28): 13 µM (inactive)
- GI50 (SK-MEL-2): 14.7 µM (inactive)
- GI50 (SK-MEL-5): 3.04 µM (inactive)
- GI50 (SK-OV-3): 5.04 µM (inactive)
- GI50 (SN12C): 13.4 µM (inactive)
- GI50 (SNB-19): 11.1 µM (inactive)
- GI50 (SNB-75): 8.47 µM (inactive)
- GI50 (SR): 5.36 µM (inactive)
- GI50 (SW-620): 15.8 µM (inactive)
- GI50 (T47D): 3.12 µM (inactive)
- GI50 (TK-10): 12.3 µM (inactive)
- GI50 (U-251): 12.5 µM (inactive)
- GI50 (UACC-257): 7.05 µM (inactive)
- GI50 (UACC-62): 10.4 µM (inactive)
- GI50 (UO-31): 11.5 µM (inactive)
